Source: patent US20250163056A1, “NONMUSCLE MYOSIN II INHIBITORS” (The University of Florida Research Foundation, Inc., priority 2018, published 2025)

How the values were obtained:
[1] = Photostability, percentage remaining undegraded under illumination or in the dark; details: for Photostability 4 hours: percentage remaining undegraded after 4 hours illumination; for Photostability 24 hours: percentage remaining undegraded after 24 hours illumination; for Photostability Dark (24 h): percentage remaining undegraded in the dark
Rabbit skeletal myosin = assay: Skeletal muscle myosin II actin-activated ATPase assay; format: biochemical; details: 20 nM skeletal muscle myosin II; read-out: SKMMII KI
Excerpt: (§1) The cardiac muscle myosin II actin-activated ATPase assay is a biochemical assay. Specifically, it is an NADH (nicotinamide adenine dinucleotide)-coupled ATPase assay that relies on NADH fluorescence as a readout. Cardiac myosin is a mechanochemical energy transducer that hydrolyzes ATP to generate force in the presence of its activator, F-actin. The resulting ADP is regenerated to ATP by pyruvate kinase (PK) that transforms one molecule of phosphoenolpyruvate (PEP) to pyruvate in parallel. Subsequently, pyruvate is reduced to lactate by lactate dehydrogenase (LDH) that, in turn, oxidizes one molecule of NADH to NAD. Therefore, the decrease in NADH concentration as a function of time equals the ATP hydrolysis rate. Bovine cardiac myosin is obtained from a commercial source, Cytoskeleton. PK, LDH, ATP, PEP, and NADH are obtained from Sigma. F-actin is prepared in house from Rabbit Muscle Acetone Powder. The assay is run at 25° C. in 384 well black-wall polystyrene microplates with a total volume of 20 μl per well. NADH fluorescence is monitored for 30 minutes with an EnVision Multimode Plate Reader. The slope of the fluorescence response, which is proportional to the reaction rate, is determined by simple linear regression. Final assay conditions are 300 nM cardiac myosin, 10 μM actin, 40 U/ml LDH, 200 U/ml PK, 220 μM NADH, 1 mM PEP, 1 mM ATP in a buffer containing 10 mM 3-(N-morpholino)propanesulfonic acid (pH=7.0), 2 mM MgCl2, 0.15 mM ethylene glycol-bis(p-aminoethyl ether)-N,N,N′,N′-tetraacetic acid, 0.1 mg/mL bovine serum albumin, 0.5% (V/V) dimethyl sulfoxide (DMSO) and 1 mM dithiothreitol. Prior to testing the inhibitory activity of the compounds, a two-fold dilution series starting at 10 mM compound concentration is prepared in DMSO. Subsequently, 100 nl is transferred to each well of the measuring plate containing a mixture of myosin, LDH and PK. The enzymatic reaction is started with the addition of a mixture containing ATP, PEP, NADH and actin. The highest final compound concentration is 50 uM. 20 μM para-aminoblebbistatin in 0.5% DMSO serves as the positive control and 0.5% DMSO alone is the negative control. Reaction rates are determined by using the fluorescence responses of a dilution series of NADH included in all plates and plotted as a function of inhibitor concentration. All measurements are carried out in triplicate. Inhibitory constants are determined by fitting the 16 point dose-response data to a quadratic equation corresponding to a simple one-to-one binding model.
The skeletal muscle myosin II actin-activated ATPase assay is performed the same as for cardiac muscle myosin II with the following exceptions: Rabbit skeletal myosin is obtained from Cytoskeleton and the final assay conditions contain 20 nM skeletal muscle myosin II.

Bovine cardiac myosin = Bovine cardiac myosin (Bos taurus (Bovine), UniProt Q9BE39); assay: Cardiac muscle myosin II actin-activated ATPase assay (NADH-coupled); format: biochemical; parameters: key to Ratio CMMII:NMII Ki/EC50: NMII-sel: no Ki value for cardiac myosin II could be determined; the compounds had no detectable inhibitory properties versus the cardiac myosin II; details: for Ratio CMMII:NMII Ki/EC50: cardiac myosin II Ki over nonmuscle myosin II EC50; for Ki: 300 nM cardiac myosin, 10 μM actin, 25° C., read-out: CMMII KI
Sequence of Bovine cardiac myosin (Q9BE39 whole entry): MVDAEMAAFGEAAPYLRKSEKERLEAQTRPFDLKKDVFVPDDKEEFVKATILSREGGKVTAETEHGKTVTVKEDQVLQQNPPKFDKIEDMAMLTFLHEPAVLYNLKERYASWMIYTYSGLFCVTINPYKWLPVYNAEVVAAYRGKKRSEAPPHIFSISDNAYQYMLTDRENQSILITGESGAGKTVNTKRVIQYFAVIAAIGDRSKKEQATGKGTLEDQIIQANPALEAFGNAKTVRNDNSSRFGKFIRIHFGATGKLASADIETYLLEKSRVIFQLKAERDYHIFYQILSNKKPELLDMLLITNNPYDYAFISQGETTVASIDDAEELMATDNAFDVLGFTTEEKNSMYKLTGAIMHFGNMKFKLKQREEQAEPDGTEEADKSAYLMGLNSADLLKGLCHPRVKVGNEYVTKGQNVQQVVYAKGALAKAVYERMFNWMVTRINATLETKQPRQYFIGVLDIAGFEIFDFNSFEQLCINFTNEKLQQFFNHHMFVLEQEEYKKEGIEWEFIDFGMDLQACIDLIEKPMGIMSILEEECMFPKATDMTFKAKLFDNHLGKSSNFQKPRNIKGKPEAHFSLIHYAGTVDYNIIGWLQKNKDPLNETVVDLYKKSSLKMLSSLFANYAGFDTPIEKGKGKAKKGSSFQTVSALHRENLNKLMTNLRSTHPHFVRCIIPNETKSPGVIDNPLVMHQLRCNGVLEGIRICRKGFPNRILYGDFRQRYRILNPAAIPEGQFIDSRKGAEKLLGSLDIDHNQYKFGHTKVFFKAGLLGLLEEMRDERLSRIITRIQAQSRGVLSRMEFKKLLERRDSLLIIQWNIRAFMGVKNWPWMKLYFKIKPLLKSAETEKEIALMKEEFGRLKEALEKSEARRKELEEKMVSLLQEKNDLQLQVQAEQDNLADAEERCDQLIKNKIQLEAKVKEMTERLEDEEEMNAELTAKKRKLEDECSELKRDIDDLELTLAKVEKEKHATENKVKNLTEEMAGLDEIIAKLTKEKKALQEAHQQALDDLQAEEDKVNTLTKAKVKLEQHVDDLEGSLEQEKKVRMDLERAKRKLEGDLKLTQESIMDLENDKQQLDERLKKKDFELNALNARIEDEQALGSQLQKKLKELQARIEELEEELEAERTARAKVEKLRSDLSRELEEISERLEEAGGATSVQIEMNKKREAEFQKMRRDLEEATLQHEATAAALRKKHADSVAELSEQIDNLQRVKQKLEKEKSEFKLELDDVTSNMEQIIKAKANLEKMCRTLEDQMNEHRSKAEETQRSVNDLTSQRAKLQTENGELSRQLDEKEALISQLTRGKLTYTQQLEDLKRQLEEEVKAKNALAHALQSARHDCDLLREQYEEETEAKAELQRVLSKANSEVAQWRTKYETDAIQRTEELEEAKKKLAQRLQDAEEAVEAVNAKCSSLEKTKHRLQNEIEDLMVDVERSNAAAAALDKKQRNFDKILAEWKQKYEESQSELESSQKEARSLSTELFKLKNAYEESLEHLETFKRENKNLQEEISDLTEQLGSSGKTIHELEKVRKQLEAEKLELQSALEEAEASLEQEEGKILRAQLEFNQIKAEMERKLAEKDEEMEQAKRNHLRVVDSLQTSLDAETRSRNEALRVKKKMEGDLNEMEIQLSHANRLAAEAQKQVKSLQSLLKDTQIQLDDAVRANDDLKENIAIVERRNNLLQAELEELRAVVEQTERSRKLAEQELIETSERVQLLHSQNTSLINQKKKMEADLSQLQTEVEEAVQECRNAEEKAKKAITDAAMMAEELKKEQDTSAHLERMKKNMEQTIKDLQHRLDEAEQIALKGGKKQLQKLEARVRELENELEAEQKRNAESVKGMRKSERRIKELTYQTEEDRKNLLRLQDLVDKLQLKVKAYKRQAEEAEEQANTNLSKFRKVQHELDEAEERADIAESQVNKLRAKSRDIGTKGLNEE
Sequence of Bovine cardiac myosin (P85100 whole entry partner): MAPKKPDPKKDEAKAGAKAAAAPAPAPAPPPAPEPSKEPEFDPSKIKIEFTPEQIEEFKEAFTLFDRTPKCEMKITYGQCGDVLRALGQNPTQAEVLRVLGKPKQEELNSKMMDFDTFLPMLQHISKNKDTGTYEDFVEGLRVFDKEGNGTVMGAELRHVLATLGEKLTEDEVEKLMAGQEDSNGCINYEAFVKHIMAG
Sequence of Bovine cardiac myosin (Q3SZE5 whole entry partner): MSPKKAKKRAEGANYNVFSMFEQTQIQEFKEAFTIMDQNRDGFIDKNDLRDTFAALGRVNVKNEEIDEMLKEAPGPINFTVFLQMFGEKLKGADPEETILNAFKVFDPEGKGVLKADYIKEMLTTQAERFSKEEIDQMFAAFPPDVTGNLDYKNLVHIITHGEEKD
Excerpt: as §1

SMILES	Photostability 4 hours [1] [%]	Photostability 24 hours [1] [%]	Photostability Dark (24 h) [1] [%]	Ki (Rabbit skeletal myosin) [µM]	Ratio CMMII:NMII Ki/EC50 (Bovine cardiac myosin)	Ki (Bovine cardiac myosin) [µM]
CCc1ccc2cc(N3CC[C@@]4(O)C(=O)c5cc(C)c(C)cc5N=C34)ccc2n1 [BPN-0028867]	69.9	1	98.7	1.3	NMII-sel	–
O=C1c2cc(C(F)(F)F)ccc2N=C2N(c3ccccc3)CC[C@@]12O [BPN-0025110]	6.6	2.6	>99	8	6.9	22
O=C1c2cc(C(F)(F)F)ccc2N=C2N(c3ccc4ncccc4c3)CC[C@@]12O [BPN-0027218]	90.0	4.4	95.5	40	NMII-sel	–
CCc1cc2c(s1)N=C1N(c3ccc4ccoc4c3)CC[C@@]1(O)C2=O [BPN-0026749]	87.8	<5	>99	23	NMII-sel	–
Cc1cc2c(cc1C)C(=O)[C@]1(O)CCN(c3ccc4c(c3)COCCN4)C1=N2 [BPN-0028758]	90.9	55.3	93.3	40	4.1	210
COc1cccc(N2CC[C@@]3(O)C(=O)c4cc(C)c(C)cc4N=C23)c1 [BPN-0026497]	82.7	6.1	97.5	9.8	15.7	33
Cc1cc2c(cc1C)C(=O)[C@]1(O)CCN(c3ccc4ncsc4c3)C1=N2 [BPN-0027122]	69.5	5.3	97.1	5.9	26.5	45
Cc1nc2cc(N3CC[C@@]4(O)C(=O)c5cc(F)c(C)cc5N=C34)ccc2o1 [BPN-0027198]	89.9	21.4	>99	0.88	3.6	10.5
Cc1ccc2c(c1)C(=O)[C@]1(O)CCN(c3cnc4sccc4c3)C1=N2 [BPN-0027410]	91.5	41.8	>99	1.6	7.4	25
Cc1cc2c(cc1C)C(=O)[C@]1(O)CCN(c3ccc(C#N)cc3)C1=N2 [BPN-0026499]	97.7	84.9	>99	0.18	12.4	5.7
Cc1ccc(N2CC[C@@]3(O)C(=O)c4cc(C)c(C)cc4N=C23)cc1 [BPN-0026663]	40.7	2.0	97.3	0.12	3.5	2.8
Cc1nc2ccc(N3CC[C@@]4(O)C(=O)c5cc(C)c(C)cc5N=C34)cc2o1 [BPN-0027213]	46.3	1.0	85.0	0.45	11.4	33
Cc1cc2c(cc1C)C(=O)[C@]1(O)CCN(c3cnc(C)c(C)c3)C1=N2 [BPN-0028694]	55.3	11.2	98.0	1.7	8.4	16
CNc1cc(N2CC[C@@]3(O)C(=O)c4cc(C)c(C)cc4N=C23)ccn1 [BPN-0028650]	88.7	62.6	93.4	12	4.4	40
Cc1cc2c(cc1C)C(=O)[C@]1(O)CCN(c3ccc4oc(CO)cc4c3)C1=N2 [BPN-0028555]	4.7	<1	93.6	1.5	6.1	4.6
Cc1cc2cc(N3CC[C@@]4(O)C(=O)c5cc(C)c(C)cc5N=C34)ccc2cn1 [BPN-0027161]	78.6	60.2	98.3	0.24	21.8	24
Cc1cc2c(cc1F)C(=O)[C@]1(O)CCN(c3ccccc3)C1=N2 [BPN-0026387]	85.2	18.0	93.5	1.2	5.2	13
Cc1cc2c(cc1C(F)(F)F)N=C1N(c3ccccc3)CC[C@@]1(O)C2=O [BPN-0026648]	94.3	84.3	97.7	4.5	11.9	56
Cc1cc2c(cc1C)C(=O)[C@]1(O)CCN(c3ccc4nnsc4c3)C1=N2 [BPN-0028550]	92.7	77.6	89.4	9.4	7.5	70
Cc1cc2c(cc1C)C(=O)[C@]1(O)CCN(c3ccc4c(c3)OCCN4)C1=N2 [BPN-0028552]	87.7	62.2	91.8	2.5	21.7	26
Cc1cc2c(cc1C)C(=O)[C@]1(O)CCN(c3cnc4c(c3)CCCC4)C1=N2 [BPN-0028920]	36.6	2.5	98.4	3.9	NMII-sel	–
Cc1cc2c(s1)C(=O)[C@]1(O)CCN(c3ccc(C#N)c(Cl)c3)C1=N2 [BPN-0027162]	98.5	95.9	>99	4.5	6.6	52
Cc1cc2c(cc1C(F)(F)F)N=C1N(c3ccc4ccoc4c3)CC[C@@]1(O)C2=O [BPN-0027108]	>99	97.0	>99	10	NMII-sel	–
Cc1ccc2c(c1)C(=O)[C@]1(O)CCN(c3ccc4nc(C#N)ccc4c3)C1=N2 [BPN-0027393]	95.2	83.9	97.5	3.5	5.8	30
Cc1ccc2c(c1)C(=O)[C@]1(O)CCN(c3ccc4cccnc4c3)C1=N2 [BPN-0027039]	89.8	31.3	95.9	4.6	3.1	68
Cc1cc2c(cc1C)C(=O)[C@]1(O)CCN(c3ccc4c(c3)OCCO4)C1=N2 [BPN-0028921]	2.8	3.1	97.2	1	11.2	8.4
CCc1cc2c(s1)N=C1N(c3ccc4ncccc4c3)CC[C@@]1(O)C2=O [BPN-0027217]	97.9	76.0	>99	21	20.5	160
